These results are taken from article PMC11501026, “L-Arginine and asymmetric dimethylarginine (ADMA) transport across the mouse blood-brain and blood-CSF barriers: Evidence of saturable transport at both interfaces and CNS to blood efflux” (PLOS ONE, 2024).

Several values for one entry are separate records, joined by “and”; a condition that tells them apart may be missing. Identical values can stand only once.

A short description of data set [1]: in situ brain/choroid plexus perfusion: CNS uptake of [^3H]-arginine, [^3H]-ADMA and [^14C]-sucrose (multiple-time and single-time uptake analysis). The conditions noted are these: for Kp at 30 min / Kp at 20 min: male, BALB/c, mouse, in vivo; for Kp at 20 min: tissue or CSF to plasma ratio (mean), uncorrected, given as fraction.
The subject of data set [2] is [^3H]-arginine transport across the blood-brain and blood-CSF barriers. The data set can be described thus: self-inhibition, in situ perfusion: [^3H]-arginine with 100 μM unlabelled L-arginine. The format is in vivo, mouse. The following applies: +100uM Un-labelled arginine, 10 mins, Balb/c ♂, 5ml/min; single mouse. On the procedure:
(§1) Self-inhibition experiments were also performed. […] Cross-competition experiments were also performed.
(§2) The percentage change in the RTissue uptake values achieved in the absence or presence of an unlabelled inhibitor can be calculated by means of Eq 4.
(§3) %change=RTissue−RInhibition/RTissue×100 Eq 4
(§4) We define RInhibition as the RTissue uptake in the presence of an inhibitor in the artificial plasma.
(§5) A decrease in the uptake of radiolabelled solute in the presence of unlabelled inhibitor is indicative of a saturable influx transport system. Conversely, an increase in the uptake of radiolabelled solute in the presence of unlabelled inhibitor is indicative of a saturable efflux transport system.

Assay in data set [3]: as above
The format is in vivo, mouse. The following applies: male, Balb/c, mouse, other: in situ brain perfusion, with 100 µM unlabelled L-arginine, +100uM Un-labelled arginine, 10 mins, Balb/c ♂, 5ml/min. Here is the method: as §1, §2, §3, §4, §5

Turning to `OC[C@H]1O[C@@](CO)(O[C@H]2O[C@H](CO)[C@@H](O)[C@H](O)[C@H]2O)[C@@H](O)[C@@H]1O` [[^14C]-sucrose, reference compound], the “pineal gland: [14C] Sucrose” value in data set [1] (30 mins, Balb/c ♂, 5ml/min, single mouse) was 0.7704 and 1.659 and 1.346. For the same compound, the Kp at 30 min in data set [1] (caudate nucleus: [14C] Sucrose, 30 mins, Balb/c ♂, 5ml/min, mean) came out at 0.0778; in data set [1] (cerebellum: [14C] Sucrose, 30 mins, Balb/c ♂, 5ml/min, mean), 0.059; in data set [1] (cerebellum: [14C] Sucrose, 30 mins, Balb/c ♂, 5ml/min, single mouse) it was 0.0613; in data set [1] (pineal gland: [14C] Sucrose, 30 mins, Balb/c ♂, 5ml/min, mean), 1.05; in data set [1] (pons: [14C] Sucrose, 30 mins, Balb/c ♂, 5ml/min, mean), 0.124; in data set [1] (thalamus: [14C] Sucrose, 30 mins, Balb/c ♂, 5ml/min, mean), 0.0965. Moreover, the Kp at 20 min is 0.0663 in data set [1] (caudate nucleus); 0.0456 in data set [1] (cerebellum); 0.0797 in data set [1] (frontal cortex); 0.0477 in data set [1] (hippocampus); 0.0657 in data set [1] (hypothalamus); 0.524 in data set [1] (pineal gland). For the same compound, the Kp at 20 min in data set [1] (pons) is 0.118; in data set [1] (thalamus), 0.0672. Also, in data set [2], the “pellet: [14C] Sucrose” value was 0.001001 and 0.002262 and 0.003661 and 0.002471 and 0.002325. For the same compound, the Kp at 10 min in data set [3] (pellet, pellet: [14C] Sucrose, mean) came to 0.00699; in data set [3] (pituitary gland, pituitary gland: [14C] Sucrose, mean), 0.151; in data set [3] (pons, pons: [14C] Sucrose, mean), 0.0326; in data set [3] (supernatant, supernatant: [14C] Sucrose, single mouse) it was 0.0159.
